Reference: patent US6160020A, “Alkali metal and alkaline-earth metal salts of acetaminophen” (priority 1998, dated 2000)
In brackets after ≈: the same amount, converted by molar mass. Structures can show the parent of a compound that is named as a salt. Where two headings read alike, the source gives them in different places.

What was measured:
[1] = cited from earlier work
[2] = aqueous solubility at 22° C.; type: physicochemical; conditions: for solubility equivalent of APAP free acid: expressed as APAP free acid, approximately
Protocol: Accordingly, the sodium, lithium and calcium salts have solubilities equivalent to approximately 260-280, 250-270, and 10 mg/mL, respectively, of APAP free acid.

[3] = dissolution of APAP form (powder) in 0.1N hydrochloric acid, USP Dissolution Apparatus 2; type: physicochemical; conditions: paddle 50 rpm, 37° C.
Protocol: In 0.1N hydrochloric acid using USP Dissolution Apparatus 2 (paddle speed: 50 rpm) at 37° C., the concentration of acetaminophen at 30 seconds was as follows: […]

[4] = in vivo; parameters: species or system dog (male purebred beagles); conditions: dog, po
Protocol: A study was conducted in dogs to determine the bioavailability of acetaminophen sodium. The free acid form of acetaminophen was used as the control. Compressed cylindrical pellets having the following composition were prepared:
Acetaminophen Sodium--compressed neat (no excipients). Control--150 mg APAP, 30 mg microcrystalline cellulose, and 30 mg dextrates.
Eight male purebred beagles having a body weight at initial dosing of approximately 9 to 14 kg were used in the study. The dogs were fed PMI® Certified Canine Diet Meal No. 5007 and water, both ab libitum. The dogs were fasted overnight for approximately 12 hours prior to dosing and food was returned 4 hours after dosing.
The dogs were divided into two groups and each group was dosed with either acetaminophen sodium or the control (free acid APAP) pellets. A single dose equivalent to 300 mg of acetaminophen free acid was administered via an oral gavage using a stomach tube. Each dose was followed by 20 mL of water. After a period of one week, the each group was dosed again, but with the other form of acetaminophen. Twelve blood samples were collected form each dog on each dosing day (1 prior to dosing and 11 thereafter). The plasma was separated and tested for acetaminophen.

[5] = stability of anionic form of APAP in aqueous solution; type: physicochemical; conditions: pH>11
Protocol: The lack of discussion on APAP salts in the scientific literature may be due in part to the fact that the anionic form of APAP is stable in aqueous solution (pH>11) for only a short period of time (<24 h). If the salt is not quickly isolated after formation, p-aminophenolate (PAP) can form and result in discoloration of the resulting product.

aqueous solubility [2] [mg/mL] | concentration of acetaminophen at 30 seconds [3] | Compound | other results
 |  | CC(=O)Nc1ccc(OC(=O)CN)cc1 [APG-HBr, p-acetamidophenyl glycinate] | water solubility, fold more soluble than acetaminophen ([1]; relative to acetaminophen): five
 |  | CC(=O)Nc1ccc(OC(=O)CC(N)C(=O)O)cc1 (stereo not drawn) [BAPA-HCl, β-p-acetamidophenyl aspartate] | water solubility, fold less soluble than APAP ([1]; relative to APAP): four
13 | 0.20 Mg/mL of APAP | CC(=O)Nc1ccc(O)cc1 [Calcium Salt, acetaminophen calcium] | solubility equivalent of APAP free acid [2]: ~10 mg/mL
 | 0.02 Mg/mL of APAP | CC(=O)Nc1ccc(O)cc1 [Free Acid, acetaminophen] | 
493 |  | CC(=O)Nc1ccc(O)cc1 [I, acetaminophen sodium (C8 H8 NO2 Na.6H2 O)] | 
541 |  | CC(=O)Nc1ccc(O)cc1 [II, acetaminophen sodium (C8 H8 NO2 Na.7H2 O)] | 
13 |  | CC(=O)Nc1ccc(O)cc1 [III, acetaminophen calcium (C16 H16 N2 O4 Ca.2H2 O)] | 
455 (≈ 3010 mM) |  | CC(=O)Nc1ccc(O)cc1 [IV, acetaminophen lithium (C8 H8 NO2 Li.6H2 O)] | aqueous solubility ([2]; listed as Example V): 472 mg/mL (≈ 3120 mM)
 | 0.32 Mg/mL of APAP | CC(=O)Nc1ccc(O)cc1 [Lithium Salt, acetaminophen lithium] | solubility equivalent of APAP free acid [2]: 250 to 270 mg/mL
 | 0.30 Mg/mL of APAP | CC(=O)Nc1ccc(O)cc1 [Sodium Salt, acetaminophen sodium] | solubility equivalent of APAP free acid [2]: 260 to 280 mg/mL; Tmax [4]: 16.2 ± 6 min
 |  | CC(=O)Nc1ccc(O)cc1 [anionic form of APAP] | stability in aqueous solution [5]: < 24 h
